Data taken from patent US9486506B2 (Novo Nordisk A/S, priority 2011, dated 2016).
Numbered stars: 1 amine (or outer) side, 2 acyl side, 3 side chain; on linkers, the order of the positions; unused ones are H or OH. Side chains are listed from the residue outwards. Peptide text beside a SMILES is read from it. * marks the point of attachment. C18 diacid = O=C(O)CCCCCCCCCCCCCCCCC(=O)*; γGlu = O=C(O)[C@H](CCC(=O)[*:2])N[*:1]; AEEA = NCCOCCOCC(=O)O

molecular target: T1, glucagon receptor (Homo sapiens, UniProt P47871); assay: Assay (I) Glucagon activity (cAMP biosensor, FLIPR); type: cell-based
T1 construct: expressed in transfected cells
T1 sequence (P47871 26-477): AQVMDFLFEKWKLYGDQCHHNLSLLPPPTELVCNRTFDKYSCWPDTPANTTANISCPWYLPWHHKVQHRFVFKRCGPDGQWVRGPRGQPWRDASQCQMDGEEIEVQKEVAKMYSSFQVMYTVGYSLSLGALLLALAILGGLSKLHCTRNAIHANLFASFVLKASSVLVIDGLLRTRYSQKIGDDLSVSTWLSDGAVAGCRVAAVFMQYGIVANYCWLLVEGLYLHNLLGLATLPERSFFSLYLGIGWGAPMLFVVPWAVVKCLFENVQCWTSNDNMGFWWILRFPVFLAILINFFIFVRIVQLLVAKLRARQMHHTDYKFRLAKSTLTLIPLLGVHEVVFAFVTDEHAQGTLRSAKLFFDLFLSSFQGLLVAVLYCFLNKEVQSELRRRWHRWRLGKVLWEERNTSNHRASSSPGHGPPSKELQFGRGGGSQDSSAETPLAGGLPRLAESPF
Procedure: The cells (14000 per well) were incubated (37° C., 5% CO2) overnight in 384-well plates. Next day the cells were loaded with a calcium responsive dye that only distributed into the cytoplasm. Probenecid, an inhibitor of the organic anion transporter, was added to prevent the dye from leaving the cell. A PDE inhibitor was added to prevent formatted cAMP from being degraded. The plates were placed into a […] and the glucagon analogues were added. End point data were collected after 6 minutes. An increase in intracellular cAMP was proportional to an increased in calcium concentrations in the cytoplasm. When calcium was bound the dry a fluorescence signal was generated. EC50-values were calculated in Prism5.

In order of rising EC50:
1. CC(C)C[C@H](NC(=O)[C@H](Cc1ccc(O)cc1)NC(=O)[C@H](CCCCN)NC(=O)[C@H](CO)NC(=O)[C@H](Cc1ccc(O)cc1)NC(=O)[C@H](CC(=O)O)NC(=O)[C@H](CO)NC(=O)[C@@H](NC(=O)[C@H](Cc1ccccc1)NC(=O)[C@@H](NC(=O)CNC(=O)[C@H](Cc1c[nH]cn1)NC(=O)[C@H](CO)NC(=O)[C@@H](N)Cc1c[nH]cn1)[C@@H](C)O)[C@@H](C)O)C(=O)N[C@@H](CC(=O)O)C(=O)N[C@@H](CO)C(=O)N[C@@H](CCCCN)C(=O)N[C@@H](CCCNC(=N)N)C(=O)N[C@@H](C)C(=O)N[C@@H](CCC(N)=O)C(=O)N[C@@H](CCC(=O)O)C(=O)N[C@@H](Cc1ccccc1)C(=O)N[C@H](C(=O)N[C@@H](CCCCNC(=O)CC[C@H](NC(=O)CC[C@H](NC(=O)COCCOCCNC(=O)CC[C@H](NC(=O)CCCCCCCCCCCCCCCCC(=O)O)C(=O)O)C(=O)O)C(=O)O)C(=O)N[C@@H](Cc1c[nH]c2ccccc12)C(=O)N[C@@H](CC(C)C)C(=O)N[C@@H](CC(C)C)C(=O)N[C@@H](CO)C(=O)N[C@H](C(=O)O)[C@@H](C)O)C(C)C [Example 6, N^ε24-[(4S)-4-carboxy-4-[[(4S)-4-carboxy-4-[[2-[2-[2-[[(4S)-4-carboxy-4-(17-carboxyheptadecanoylamino)butanoyl]amino]ethoxy]ethoxy]acetyl]amino]butanoyl]amino]butanoyl]-[His^3,Lys^17,Glu^21,Lys^24,Leu^27,Ser^28]-Glucagon] (H-HSHGTFTSDYSKYLDSKRAQEFVK([γGlu-γGlu-AEEA-γGlu-C18 diacid])WLLST-OH)  0.077 nM
2. CC(C)C[C@H](NC(=O)[C@H](Cc1c[nH]c2ccccc12)NC(=O)[C@H](CCCCNC(=O)CC[C@H](NC(=O)CC[C@H](NC(=O)COCCOCCNC(=O)COCCOCCNC(=O)CC[C@H](NC(=O)CCCCCCCCCCCCCCCCC(=O)O)C(=O)O)C(=O)O)C(=O)O)NC(=O)[C@@H](NC(=O)[C@H](Cc1ccccc1)NC(=O)[C@H](CC(=O)O)NC(=O)[C@H](CCC(N)=O)NC(=O)[C@H](C)NC(=O)[C@H](CCCNC(=N)N)NC(=O)[C@H](CCCNC(=N)N)NC(=O)[C@@H](NC(=O)[C@H](CC(=O)O)NC(=O)[C@H](CC(C)C)NC(=O)[C@H](Cc1ccc(O)cc1)NC(=O)[C@H](CCCCN)NC(=O)[C@H](CO)NC(=O)[C@H](Cc1ccc(O)cc1)NC(=O)[C@H](CC(=O)O)NC(=O)[C@H](CO)NC(=O)[C@@H](NC(=O)[C@H](Cc1ccccc1)NC(=O)[C@@H](NC(=O)CNC(=O)[C@H](CCC(N)=O)NC(=O)[C@H](CO)NC(=O)[C@@H](N)Cc1c[nH]cn1)[C@@H](C)O)[C@@H](C)O)C(C)C)C(C)C)C(=O)N[C@@H](CC(C)C)C(=O)N[C@@H](CC(N)=O)C(=O)N[C@H](C(=O)O)[C@@H](C)O [Example 7, N^ε24-[(4S)-4-carboxy-4-[[(4S)-4-carboxy-4-[[2-[2-[2-[[2-[2-[2-[[(4S)-4-carboxy-4-(17-carboxyheptadecanoylamino)butanoyl]amino]ethoxy]ethoxy]acetyl]amino]ethoxy]ethoxy]acetyl]amino]butanoyl]amino]butanoyl]-[Val^16,Lys^24,Leu^27]-Glucagon]  0.081 nM
3. CC(C)C[C@H](NC(=O)[C@H](Cc1c[nH]c2ccccc12)NC(=O)[C@H](CCCCNC(=O)CC[C@H](NC(=O)CC[C@H](NC(=O)COCCOCCNC(=O)COCCOCCNC(=O)CC[C@H](NC(=O)CCCCCCCCCCCCCCCCC(=O)O)C(=O)O)C(=O)O)C(=O)O)NC(=O)[C@@H](NC(=O)[C@H](Cc1ccccc1)NC(=O)[C@H](CC(=O)O)NC(=O)[C@H](CCC(N)=O)NC(=O)[C@H](C)NC(=O)[C@H](CCCNC(=N)N)NC(=O)[C@H](CCCNC(=N)N)NC(=O)[C@@H](NC(=O)[C@H](CC(=O)O)NC(=O)[C@H](CC(C)C)NC(=O)[C@H](Cc1ccc(O)cc1)NC(=O)[C@H](CCCCN)NC(=O)[C@H](CO)NC(=O)[C@H](Cc1ccc(O)cc1)NC(=O)[C@H](CC(=O)O)NC(=O)[C@H](CO)NC(=O)[C@@H](NC(=O)[C@H](Cc1ccccc1)NC(=O)[C@@H](NC(=O)CNC(=O)[C@H](CCC(N)=O)NC(=O)[C@H](CO)NC(=O)[C@@H](N)Cc1c[nH]cn1)[C@@H](C)O)[C@@H](C)O)C(C)C)C(C)C)C(=O)N[C@@H](CC(C)C)C(=O)N[C@@H](CO)C(=O)N[C@H](C(=O)O)[C@@H](C)O [Example 30, N^ε24-[(4S)-4-carboxy-4-[[(4S)-4-carboxy-4-[[2-[2-[2-[[2-[2-[2-[[(4S)-4-carboxy-4-(17-carboxyheptadecanoylamino)butanoyl]amino]ethoxy]ethoxy]acetyl]amino]ethoxy]ethoxy]acetyl]amino]butanoyl]amino]butanoyl]-[Val16,Lys24,Leu27,Ser28]-Glucagon]  0.307 nM
4. CC(C)C[C@H](NC(=O)[C@H](Cc1ccc(O)cc1)NC(=O)[C@H](CCCNC(=N)N)NC(=O)[C@H](CO)NC(=O)[C@H](Cc1ccc(O)cc1)NC(=O)[C@H](CC(=O)O)NC(=O)[C@H](CO)NC(=O)[C@@H](NC(=O)[C@H](Cc1ccccc1)NC(=O)[C@@H](NC(=O)CNC(=O)[C@H](CCC(N)=O)NC(=O)[C@H](CO)NC(=O)[C@@H](N)Cc1c[nH]cn1)[C@@H](C)O)[C@@H](C)O)C(=O)N[C@@H](CCC(=O)O)C(=O)N[C@@H](CO)C(=O)N[C@@H](CCCNC(=N)N)C(=O)N[C@@H](CCCNC(=N)N)C(=O)N[C@@H](C)C(=O)N[C@@H](CCC(N)=O)C(=O)N[C@@H](CCC(=O)O)C(=O)N[C@@H](Cc1ccccc1)C(=O)N[C@H](C(=O)N[C@@H](CCCCNC(=O)CC[C@H](NC(=O)CC[C@H](NC(=O)COCCOCCNC(=O)COCCOCCNC(=O)CC[C@H](NC(=O)CCCCCCCCCCCCCCCCC(=O)O)C(=O)O)C(=O)O)C(=O)O)C(=O)N[C@@H](Cc1c[nH]c2ccccc12)C(=O)N[C@@H](CC(C)C)C(=O)N[C@@H](CCC(=O)O)C(=O)N[C@@H](CO)C(=O)N[C@H](C(=O)O)[C@@H](C)O)C(C)C [Example 55, N^ε24-[(4S)-4-carboxy-4-[[(4S)-4-carboxy-4-[[2-[2-[2-[[2-[2-[2-[[(4S)-4-carboxy-4-(17-carboxyheptadecanoylamino)butanoyl]amino]ethoxy]ethoxy]acetyl]amino]ethoxy]ethoxy]acetyl]amino]butanoyl]amino]butanoyl]-[Arg12,Glu15,Glu21,Lys24,Glu27,Ser28]-Glucagon] (H-HSQGTFTSDYSRYLESRRAQEFVK([γGlu-γGlu-AEEA-AEEA-γGlu-C18 diacid])WLEST-OH)  1.09 nM
5. CC[C@H](C)[C@H](NC(=O)[C@H](CC(N)=O)NC(=O)[C@H](CC(C)C)NC(=O)[C@H](CC(C)C)NC(=O)[C@H](Cc1c[nH]c2ccccc12)NC(=O)[C@H](CCCCNC(=O)CC[C@H](NC(=O)COCCOCCNC(=O)COCCOCCNC(=O)CC[C@H](NC(=O)CCCCCCCCCCCCCCCCC(=O)O)C(=O)O)C(=O)O)NC(=O)[C@@H](NC(=O)[C@H](Cc1ccccc1)NC(=O)[C@H](CC(=O)O)NC(=O)[C@H](CCC(N)=O)NC(=O)[C@H](C)NC(=O)[C@H](CCCNC(=N)N)NC(=O)[C@H](CCCNC(=N)N)NC(=O)[C@H](CO)NC(=O)[C@H](CCC(=O)O)NC(=O)[C@H](CC(C)C)NC(=O)[C@H](Cc1ccc(O)cc1)NC(=O)[C@H](CCCCN)NC(=O)[C@H](CO)NC(=O)[C@H](Cc1ccc(O)cc1)NC(=O)[C@H](CC(=O)O)NC(=O)[C@H](CO)NC(=O)[C@@H](NC(=O)[C@H](Cc1ccccc1)NC(=O)[C@@H](NC(=O)CNC(=O)[C@H](CCC(N)=O)NC(=O)[C@H](CO)NC(=O)[C@@H](N)Cc1c[nH]cn1)[C@@H](C)O)[C@@H](C)O)C(C)C)C(=O)O [Example 32, N^ε24-[(4S)-4-carboxy-4-[[2-[2-[2-[[2-[2-[2-[[(4S)-4-carboxy-4-(17-carboxyheptadecanoylamino)butanoyl]amino]ethoxy]ethoxy]acetyl]amino]ethoxy]ethoxy]acetyl]amino]butanoyl]-[Glu15,Lys24,Leu27,Ile29]-Glucagon]  1.12 nM
